The results in this text go back to ChEMBL document CHEMBL3864150, “Synthesis and cytotoxicity study of novel 3-(triazolyl)coumarins based fluorescent scaffolds” (Bioorg Med Chem Lett, 2016).

One data set relates to HeLa. Kind of data set: Selectivity factor, ratio of IC50 for human MRC5 cells to IC50 for human HeLa cells.
Data set [1] can be described thus: Cytotoxicity against human MRC5 cells after 24 hrs by MTT assay. On the technique in general: Formazan colour is commonly taken as a measure of viable cells.
Another data set relates to MCF7. Put plainly: Selectivity factor, ratio of IC50 for human MRC5 cells to IC50 for human MCF7 cells.
Data set [2] can be described thus: Cytotoxicity against human MCF7 cells after 24 hrs by MTT assay. Format: functional, cell-based. Conditions: MCF7, 24 h; call rule not given here.
A short description of data set [3]: Cytotoxicity against human HeLa cells after 24 hrs by MTT assay. Format: functional, cell-based.
Data set [4] in a line: Drug uptake in human MCF7 cells at 20 uM after 2 hrs by fluorescence microscopy. Particulars: mcf7, 2 h. The format is ADME, cell-based.

For the compound `COc1cccc2cc(-n3nnc4c3-c3ccccc3N(C(=O)CCN)Cc3ccccc3-4)c(=O)oc12`, the “Ratio IC50” value with HeLa came out at 3.54; in the data set with MCF7, 4.24. Also, the IC50 (in general, the midpoint of a concentration-inhibition curve) at 24 h in data set [1] turned out to be 92.8 µM. The IC50 worked out at 21.9 µM in data set [2] and 26.2 µM in data set [3].
For `[N-]=[N+]=Nc1cc2cc(Br)ccc2oc1=O`, the “Ratio IC50” value was 2.48 with HeLa and 2.97 with MCF7. In data set [1], this compound showed an IC50 at 24 h of 70.4 µM. Further, the 50% inhibitory concentration (IC50) in data set [2] was 23.7 µM; in data set [3], 28.3 µM.
`COc1cccc2cc(N=[N+]=[N-])c(=O)oc12`: the “Ratio IC50” value in the data set with HeLa is recorded as 1.61; with MCF7, 1.85. In data set [1], this compound had an IC50 at 24 h of 58.7 µM. For the same compound, the IC50 is 31.5 µM in data set [2] and 36.4 µM in data set [3].
The matching figures for `[N-]=[N+]=Nc1cc2ccc(O)cc2oc1=O`: 1.5, 1.63, 62.7 µM, 38.4 µM and 41.6 µM.
Turning to `[N-]=[N+]=Nc1cc2ccccc2oc1=O`, the “Ratio IC50” value in the data set on HeLa is on record as 2.37; in the data set with MCF7, 2.63. The IC50 at 24 h in data set [1] was determined as 70.2 µM. Also, the IC50 in data set [2] was found to be 26.7 µM; in data set [3], 29.6 µM.
Consider `NCCC(=O)N1Cc2ccccc2-c2nnn(-c3cc4cc(Br)ccc4oc3=O)c2-c2ccccc21`, for which the results for the “Ratio IC50” value with HeLa and in the data set on MCF7 were 5.49 and 9.4, respectively. This compound yielded an IC50 at 24 h in data set [1] of 100 µM. Also, the IC50 in data set [2] stood at 10.7 µM; in data set [3], 18.2 µM.
The matching figures for `NCCC(=O)N1Cc2ccccc2-c2nnn(-c3cc4ccc(OCCBr)cc4oc3=O)c2-c2ccccc21`: 6.19, 6.52, 121 µM, 18.5 µM and 19.5 µM.
As to `NCCC(=O)N1Cc2ccccc2-c2nnn(-c3cc4cc(Cl)cc(Cl)c4oc3=O)c2-c2ccccc21`, the “Ratio IC50” value was determined as 10.58 in the data set on HeLa and 18.84 in the data set with MCF7. The compound also had an IC50 at 24 h in data set [1] of 185 µM. The values for the IC50 in data set [2] and in data set [3] were 9.83 µM and 17.5 µM, respectively. In addition, the Drug uptake result in data set [4] is on record as “Active”.
With `NCCC(=O)N1Cc2ccccc2-c2nnn(-c3cc4ccc(O)cc4oc3=O)c2-c2ccccc21`, the “Ratio IC50” value was 4.27 in the data set with HeLa and 4.9 in the data set on MCF7. Half-maximal inhibition in data set [1] (IC50 at 24 h) required 90.2 µM. For the same compound, the IC50 in data set [2] came out at 18.4 µM; in data set [3], 21.1 µM. In addition, in data set [4], the Drug uptake entry is on record as “Active”.
As for `[N-]=[N+]=Nc1cc2cc(Cl)cc(Cl)c2oc1=O`, the “Ratio IC50” value is listed as 2.43 in the data set on HeLa and 3.6 in the data set on MCF7. The compound also registered an IC50 at 24 h in data set [1] of 67.2 µM. Also, the IC50 in data set [2] was 18.6 µM; in data set [3] it was 27.6 µM.
Take `NCCC(=O)N1Cc2ccccc2-c2nnn(-c3cc4ccccc4oc3=O)c2-c2ccccc21`: the entries for the “Ratio IC50” value in the data set with HeLa and in the data set with MCF7 were 5.55 and 8.68, respectively. The same compound showed an IC50 at 24 h in data set [1] of 110 µM. Besides, the values for the IC50 in data set [2] and in data set [3] were 12.7 µM and 19.8 µM, respectively.
Compound `COc1cccc2c1C(=O)c1c(O)c3c(c(O)c1C2=O)C[C@@](O)(C(=O)CO)C[C@@H]3O[C@H]1C[C@H](N)[C@H](O)[C@H](C)O1` [DOXORUBICIN] returned a concentration for half-maximal inhibition (IC50) at 24 h in data set [1] of 70.6 µM. In data set [3], this compound came in with a half-inhibitory concentration (IC50) of 5.2 µM.
